This passage reports IC50 results from ChEMBL document CHEMBL5726342, “NMDA receptor modulators and uses related thereto” (2017).

This assay in a line: Inhibition Assay: Two-electrode voltage-clamp recordings were made from Xenopus laevis oocytes expressing recombinant rat GluN1/GluN2A, GluN1/GluN2B, GluN1/GluN2C, GluN1/GluN2D, GluA1, or GluK2 receptors following injection of 5-10 ng of cRNA synthesized according to manufacturers' protocols (Ambin, mMessage, mMachine). cDNAs used were rat GluN1-1a (GenBank accession numbers U11418 and U08261; hereafter GluN1), GluN2A (D13211), GluN2B (U11419), GluN2C (M91563), GluN2D (L31611), GluA1 (X17184), GluK2 (Z11548). The current under voltage-clamp was recorded during perfusion with recording solution containing (in mM) 90 NaCl, 1.0 KCl, 0.5 BaCl2, 0.005 EDTA, and 10 HEPES at pH 7.4 (23° C.). Glass micropipettes had resistances of 0.3-1.0 MS2 and were filled with 3.0 M KCl. The membrane potential was clamped at −40 mV during the experiment. Recordings were digitized at 10 Hz and analyzed off line. 20 mM stock solutions of test compounds in 100% DMSO were made and diluted to obtain the final concentration; final DMSO content was 0.05-0.5% (vol/vol). Oocytes expressing GluK2 homomeric receptors were first treated with 10 μM concanavalin A (10 minutes). NMDA receptor responses were obtained by challenging oocytes with 100 μM glutamate plus 30 μM glycine; GluA1 and GluK2 receptors responses were recorded during application of 100 μM glutamate. […]. The assay is classed as cell-based.

Regarding `CCc1ccc(C2C(C(=O)c3ccncc3)=C(O)C(=O)N2CCc2c[nH]c3cc(C)ccc23)cc1` (configuration not stated), the IC50 – broadly, the concentration that gives 50% inhibition – amounted to 9 µM.

With `CCc1ccc(C2C(C(=O)c3cccnc3)=C(O)C(=O)N2CCc2c[nH]c3cc(C)ccc23)cc1` (configuration not stated), the IC50 was 7 µM.
